Tests used:
[1] = test system: Human immunodeficiency virus 1; assay: Antiviral activity against HIV1 LAI infected in human MT2 cells; format: functional, organism-based; details: Human immunodeficiency virus 1, LAI
[2] = target: Protease (Human immunodeficiency virus 1, UniProt Q9YQ12); assay: Inhibition of HIV1 protease
[3] = test system: Human immunodeficiency virus 1; assay: Antiviral activity against darunavir-resistant HIV1 P51 infected in human MT4 cells by XTT assay; format: functional, organism-based; details: Human immunodeficiency virus 1, P51, MT4
[4] = test system: Human immunodeficiency virus 1; assay: Antiviral activity against HIV1 NL4-3 infected in human MT4 cells by XTT assay; format: functional, organism-based; details: Human immunodeficiency virus 1, NL4-3, MT4
[5] = test system: Human immunodeficiency virus 1; assay: Antiviral activity against darunavir-resistant HIV1 P10 infected in human MT4 cells by XTT assay; format: functional, organism-based; details: Human immunodeficiency virus 1, P10, MT4
[6] = test system: Human immunodeficiency virus 1; assay: Resistance index, ratio of EC50 for darunavir-resistant HIV1 P20 infected in human MT4 cells by XTT assay to EC50 for HIV1 NL4-3 infected in human MT4 cells by XTT assay; format: functional
[7] = test system: Human immunodeficiency virus 1; assay: Antiviral activity against darunavir-resistant HIV1 P20 infected in human MT4 cells by XTT assay; format: functional, organism-based; details: Human immunodeficiency virus 1, P20, MT4

Protease, sequence (Q9YQ12 whole entry): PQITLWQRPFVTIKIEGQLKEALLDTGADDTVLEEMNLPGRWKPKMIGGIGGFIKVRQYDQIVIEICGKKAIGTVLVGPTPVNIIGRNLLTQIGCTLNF

SMILES | IC50 [1] [nM] | Ki [2] [nM] | EC50 [3] [nM] | EC50 [4] [nM] | EC50 [5] [nM] | Ratio EC50 [6] | EC50 [7] [nM]
COc1ccc(S(=O)(=O)N(CC(C)C)C[C@@H](O)[C@H](Cc2ccccc2)NC(=O)O[C@H]2CO[C@H]3OC[C@H](NC(=O)OC(C)(C)C)[C@H]32)cc1 | 4.4 | 0.014 |  |  |  |  | 
CCN[C@H]1CO[C@@H]2OC[C@H](OC(=O)N[C@@H](Cc3ccccc3)[C@H](O)CN(CC(C)C)S(=O)(=O)c3ccc(OC)cc3)[C@@H]21 | 22 | 0.027 | 230 | 15 | 39 |  | 
CN[C@H]1CO[C@@H]2OC[C@H](OC(=O)N[C@@H](Cc3ccccc3)[C@H](O)CN(CC(C)C)S(=O)(=O)c3ccc(OC)cc3)[C@@H]21 | 35 | 0.0015 |  | 29 |  | 1.1 | 32
CN[C@H]1CO[C@@H]2OC[C@H](OC(=O)N[C@@H](Cc3ccccc3)[C@H](O)CN(CC(C)C)S(=O)(=O)c3ccc(N)cc3)[C@@H]21 | 480 | 0.0099 |  |  |  |  | 
COc1ccc(S(=O)(=O)N(CC(C)C)C[C@@H](O)[C@H](Cc2ccccc2)NC(=O)O[C@H]2CO[C@H]3OC[C@H](NC(C)C)[C@H]32)cc1 | 0.34 | 0.0063 | 260 | 1 | 21 | 23 | 24
CCN(C(=O)OC(C)(C)C)[C@H]1CO[C@@H]2OC[C@H](OC(=O)N[C@@H](Cc3ccccc3)[C@H](O)CN(CC(C)C)S(=O)(=O)c3ccc(OC)cc3)[C@@H]21 |  | 0.048 |  |  |  |  | 
COc1ccc(S(=O)(=O)N(CC(C)C)C[C@@H](O)[C@H](Cc2ccccc2)NC(=O)O[C@H]2CO[C@H]3OC[C@H](N(C)C(=O)OC(C)(C)C)[C@H]32)cc1 | 37 | 0.012 |  |  |  |  | 

More lines, main results first:

IC50 [1] [nM] | Ki [2] [nM] | SMILES | EC50 [3] [nM] | EC50 [4] [nM] | EC50 [5] [nM] | Ratio EC50 [6] | EC50 [7] [nM]
4.4 | 0.0039 | COc1ccc(S(=O)(=O)N(CC(C)C)C[C@@H](O)[C@H](Cc2ccccc2)NC(=O)O[C@H]2CO[C@H]3OC[C@H](N=[N+]=[N-])[C@H]32)cc1 |  |  |  |  | 
3.7 | 0.024 | COC(=O)N[C@H]1CO[C@@H]2OC[C@H](OC(=O)N[C@@H](Cc3ccccc3)[C@H](O)CN(CC(C)C)S(=O)(=O)c3ccc(OC)cc3)[C@@H]21 |  |  |  |  | 
4.4 | 0.014 | COc1ccc(S(=O)(=O)N(CC(C)C)C[C@@H](O)[C@H](Cc2ccccc2)NC(=O)O[C@H]2CO[C@H]3OC[C@H](N(C)C)[C@H]32)cc1 |  |  |  |  | 
48 | 0.53 | COc1ccc(S(=O)(=O)N(CC(C)C)C[C@@H](O)[C@H](Cc2ccccc2)NC(=O)O[C@H]2CO[C@H]3OC[C@H](N)[C@H]32)cc1 |  |  |  |  | 
7.2 | 0.014 | CCN(CC)[C@H]1CO[C@@H]2OC[C@H](OC(=O)N[C@@H](Cc3ccccc3)[C@H](O)CN(CC(C)C)S(=O)(=O)c3ccc(OC)cc3)[C@@H]21 |  |  |  |  | 

— ChEMBL document CHEMBL3603748, “Design of HIV-1 Protease Inhibitors with Amino-bis-tetrahydrofuran Derivatives as P2-Ligands to Enhance Backbone-Binding Interactions: Synthesis, Biological Evaluation, and Protein-Ligand X-ray Studies” (J Med Chem, 2015)
